This test deals with T1, horse spleen apoferritin (HSAF) (Equus caballus, UniProt P02791).
T1 sequence (P02791 2-175): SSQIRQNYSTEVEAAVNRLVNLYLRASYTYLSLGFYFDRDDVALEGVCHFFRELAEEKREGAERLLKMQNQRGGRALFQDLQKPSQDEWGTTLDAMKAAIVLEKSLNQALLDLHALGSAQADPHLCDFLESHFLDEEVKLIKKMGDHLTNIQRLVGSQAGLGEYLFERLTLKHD
Put plainly: 1-AMA fluorescence displacement. It is filed as binding.

By IC50 is commonly meant the concentration at which inhibition is half-maximal. A higher IC50 goes with weaker potency. Compound `CC(C)c1cccc(C2(C(F)(F)F)N=N2)c1F` [compound 1, 3-(2-fluoro-3-isopropylphenyl)-3-(trifluoromethyl)-3H-diazirine] displayed an IC50 of 17 µM. This counts as double-digit micromolar.
The figure for `CC(C)c1cccc(C(C)C)c1F` [fropofol] is 11 µM.

Values taken from publication PMC7948515 (ACS chemical neuroscience, 2020).
